Several values for one entry are separate records, joined by “and”; a condition that tells them apart may be missing. Identical values can stand only once.
Tests used:
[1] = from 1 week under the conditions of 24°C, 50 % RH; water contents 24,41 %; cited from earlier work
[2] = Storage stability at normal pressure over 1 week under ICH conditions (water content by KF); type: physicochemical
Method: (§1) These investigations were carried out in a HERAEUS vacuum drying oven of a volume of 53 liters, at a relative humidity (RH) of less than 1 %. Investigations of storage stability at normal pressure were carried out over a period of 1 week, in compliance with the internationally accepted standards about storage stability test conditions for pharmaceuticals as defined in ICH (International Conference on Harmonization of Technical Requirements for Registration of Pharmaceuticals for Human Use), at 25°C / 60 % RH for longterm stability condition, 30°C / […] for intermediate term stability condition and 40°C / 75 % RH for accelerated stability condition.
Table 1. Water content (%, KF) of 3 lots of disodium pamidronate after storage for 1 week

[3] = Storage at room temperature at reduced pressure in vacuum drying oven (water content by KF); type: physicochemical; conditions: for water by KF method: room temperature, reduced pressure (20 millibar), RH less than 1 %
Method: as §1

NCCC(O)(P(=O)([O-])O)P(=O)([O-])O.O.O.O.O.O.[Na+].[Na+] [5 hydrates]
loss of water contents on storage [1]: a part of the water contents (24,41 %) is lost

NCCC(O)(P(=O)([O-])O)P(=O)([O-])O.O.O.O.O.O.[Na+].[Na+] [Lot 0034, disodium pamidronate pentahydrate]
Water content (%, KF) ([2]; after storage for 1 week at 25°C/60%RH (longterm stability condition), listed as 0034): 24.37% | Water content (%, KF) ([2]; after storage for 1 week at 30°C/60%RH (intermediate term stability condition), listed as 0034): 24.38% | Water content (%, KF) ([2]; after storage for 1 week at 40°C/75%RH (accelerated stability condition), listed as 0034): 24.43% | Water content (%, KF) ([2]; initial, before storage, listed as 0034): 24.55%

NCCC(O)(P(=O)([O-])O)P(=O)([O-])O.O.O.O.O.O.[Na+].[Na+] [Lot 0035, disodium pamidronate pentahydrate]
Water content (%, KF) ([2]; after storage for 1 week at 25°C/60%RH (longterm stability condition), listed as 0035): 24.40% | Water content (%, KF) ([2]; after storage for 1 week at 30°C/60%RH (intermediate term stability condition), listed as 0035): 24.39% | Water content (%, KF) ([2]; after storage for 1 week at 40°C/75%RH (accelerated stability condition), listed as 0035): 24.27% | Water content (%, KF) ([2]; initial, before storage, listed as 0035): 24.38%

NCCC(O)(P(=O)([O-])O)P(=O)([O-])O.O.O.O.O.O.[Na+].[Na+] [Lot 0036, disodium pamidronate pentahydrate]
Water content (%, KF) ([2]; after storage for 1 week at 25°C/60%RH (longterm stability condition), listed as 0036): 24.32% | Water content (%, KF) ([2]; after storage for 1 week at 30°C/60%RH (intermediate term stability condition), listed as 0036): 24.35% | Water content (%, KF) ([2]; after storage for 1 week at 40°C/75%RH (accelerated stability condition), listed as 0036): 24.39% | Water content (%, KF) ([2]; initial, before storage, listed as 0036): 24.48%

NCCC(O)(P(=O)([O-])O)P(=O)([O-])O.O.O.O.O.O.[Na+].[Na+] [disodium pamidronate pentahydrate]
water by KF method ([3]; after 4 hours of storage): 24.7% | water by KF method ([3]; after 10 hours of storage): 24.4% | water by KF method ([3]; after 38 hours of storage (determined in triplicate)): 24.35% and 24.38% and 24.32% | Stability of the product (loss of water) ([3]; stored at room temperature at reduced pressure (20 millibar)): no loss of water | storage stability ([2]; 1 week at 25°C/60 % RH, 30°C/60 % RH and 40°C/75 % RH): stable
